Source: US10028970B2, “Composition comprising cashew apple extract” (NATUREX, priority 2011, dated 2018)

Test: Thermal degradation kinetics of CAE in water at 100° C. (HPLC)
Assay type: physicochemical
Conditions: CAE 50 g/L in deionised water
Method: The thermal degradation kinetics of CAE in water was investigated at 100° C. CAE was dissolved in deionised water at the concentration of 50 g/L and the solution was well homogenized. Volumes of 4 ml of this solution were placed in glass tubes, sealed, and placed in a mineral oil bath at 100° C. At predetermined intervals: 0, 10, 20, 30, 45, 60, 90, and 120 min, sample tubes were removed from the mineral oil bath and rapidly cooled in ice. For the analysis, 1 ml of each sample was mixed with 4 ml of HPLC grade methanol, homogenized, and filtrated on 0.45 μm HPLC filter. Then, 20 μL of the solution was analyzed in HPLC. The phytochemical composition of the samples was measured by reversed phase liquid chromatography using a C-18 column (ACE, 250×4.6 mm, 5 μm) at 280 nm. The areas under peak of the major components of CAE were measured in the different samples representing different time points of at 100° C.

O=C(/C=C/c1ccccc1)O[C@@H]1O[C@H](CO)[C@@H](O)[C@H](O)[C@H]1O (relative stereo) [1-O-trans-cinnamoyl-beta-D-glucoside, 1-O-trans-cinnamoyl-beta-D-glucopyranose]
incubation time after which the amount in the extract was divided by 2: 30 min
amount remaining in the extract after 120 min of incubation (120 min): almost completely disappeared from the extract
